Data reported in ChEMBL document CHEMBL4251600, “Bioactive products from singlet oxygen photooxygenation of cannabinoids” (Eur J Med Chem, 2018).
Converted amounts (≈) assume the structure as drawn.

How the values were obtained:
[1] = test system: SK-MEL; test: Anticancer activity against human SK-MEL cells assessed as cell growth inhibition incubated for 48 hrs by neutral red dye based assay; format: functional
[2] = test system: LLC-PK1; test: Cytotoxicity against pig LLC-PK1 cells assessed as cell growth inhibition incubated for 48 hrs by neutral red dye based assay; parameters: species or system Sus scrofa; settings: llc-pk1
[3] = test system: Staphylococcus aureus; test: Antimicrobial activity against methicillin-resistant Staphylococcus aureus by modified CLSI based method; format: functional, organism-based
[4] = test system: Staphylococcus aureus; test: Antimicrobial activity against Staphylococcus aureus by modified CLSI based method; format: functional, organism-based
[5] = test system: Cryptococcus neoformans; test: Antifungal activity against Cryptococcus neoformans by alamar blue assay; format: functional, organism-based; settings: Cryptococcus neoformans
[6] = test system: Pichia kudriavzevii; test: Antifungal activity against Candida krusei by modified CLSI based method; format: functional, organism-based; settings: Pichia kudriavzevii; read-out: IC50
[7] = test system: Nakaseomyces glabratus; test: Antifungal activity against Candida glabrata by modified CLSI based method; format: functional, organism-based
[8] = test system: Plasmodium falciparum; test: Antiplasmodial activity against chloroquine-sensitive Plasmodium falciparum D6 infected in red blood cells incubated for 72 hrs by parasite LDH release based colorimetric assay; format: functional, organism-based; settings: D6, 72 h
[9] = test system: Plasmodium falciparum; test: Antiplasmodial activity against chloroquine-resistant Plasmodium falciparum W2 infected in red blood cells incubated for 72 hrs by parasite LDH release based colorimetric assay; format: functional, organism-based; settings: W2, 72 h
[10] = test system: Leishmania donovani; test: Antileishmanial activity against Leishmania donovani promastigotes incubated for 48 hrs by alamar blue assay; format: functional, organism-based; settings: Leishmania donovani, 48 h
[11] = test system: KB; test: Anticancer activity against human KB cells assessed as cell growth inhibition up to 10 ug/ml incubated for 48 hrs by neutral red dye based assay; format: functional
[12] = test system: BT-549; test: Anticancer activity against human BT549 cells assessed as cell growth inhibition up to 10 ug/ml incubated for 48 hrs by neutral red dye based assay; format: functional
[13] = test system: SK-OV-3; test: Anticancer activity against human SKOV3 cells assessed as cell growth inhibition up to 10 ug/ml incubated for 48 hrs by neutral red dye based assay; format: functional

## C=C1C[C@H]2C3=C(OC(C)(C)[C@@H]2CC1OO)C(=O)C(CCCCC)=CC3=O (stereo in doubt; 25)
[1]
  IC50: 8.65 µg/mL (≈ 24 µM)
[2]
  IC50: 9.9 µg/mL (≈ 27.5 µM)
[3]
  IC50: 5.78 µg/mL (≈ 16 µM)
[3]; Staphylococcus aureus
  MIC: 10 µg/mL (≈ 27.7 µM)
[4]
  IC50: 0.91 µg/mL (≈ 2.52 µM)
[4]; Staphylococcus aureus, read-out: MIC
  MIC: 2.5 µg/mL (≈ 6.94 µM)
[5]; read-out: IC50
  IC50: 1.4 µg/mL (≈ 3.88 µM)
[5]; read-out: MIC
  MIC: 2.5 µg/mL (≈ 6.94 µM)
[6]
  IC50: 17 µg/mL (≈ 47.2 µM)
[7]
  IC50: Not Active
[8]
  IC50: 1 µg/mL (≈ 2.77 µM)
[9]
  IC50: 0.9 µg/mL (≈ 2.5 µM)
[10]; read-out: IC50
  IC50: 2.1 µg/mL (≈ 5.83 µM)
[10]; read-out: IC90
  IC90: 11 µg/mL (≈ 30.5 µM)
[11]
  IC50: Not Active
[12]
  IC50: Not Active
[13]
  IC50: Not Active
